Assay results from patent US20090181991A1, “COMPOUNDS AND COMPOSITIONS AS PROTEIN KINASE INHIBITORS” (IRM LLC, priority 2005, published 2009).

Tests used:
Test in all cases: Upstate KinaseProfiler radio-enzymatic filter binding assay
Assay type in all cases: biochemical
Settings in all cases: 10 μM compound, remaining activity
[1] = target: T1, Bmx (Homo sapiens, UniProt P51813)
T1 construct: purchased Upstate
T1 sequence (P51813 1-675): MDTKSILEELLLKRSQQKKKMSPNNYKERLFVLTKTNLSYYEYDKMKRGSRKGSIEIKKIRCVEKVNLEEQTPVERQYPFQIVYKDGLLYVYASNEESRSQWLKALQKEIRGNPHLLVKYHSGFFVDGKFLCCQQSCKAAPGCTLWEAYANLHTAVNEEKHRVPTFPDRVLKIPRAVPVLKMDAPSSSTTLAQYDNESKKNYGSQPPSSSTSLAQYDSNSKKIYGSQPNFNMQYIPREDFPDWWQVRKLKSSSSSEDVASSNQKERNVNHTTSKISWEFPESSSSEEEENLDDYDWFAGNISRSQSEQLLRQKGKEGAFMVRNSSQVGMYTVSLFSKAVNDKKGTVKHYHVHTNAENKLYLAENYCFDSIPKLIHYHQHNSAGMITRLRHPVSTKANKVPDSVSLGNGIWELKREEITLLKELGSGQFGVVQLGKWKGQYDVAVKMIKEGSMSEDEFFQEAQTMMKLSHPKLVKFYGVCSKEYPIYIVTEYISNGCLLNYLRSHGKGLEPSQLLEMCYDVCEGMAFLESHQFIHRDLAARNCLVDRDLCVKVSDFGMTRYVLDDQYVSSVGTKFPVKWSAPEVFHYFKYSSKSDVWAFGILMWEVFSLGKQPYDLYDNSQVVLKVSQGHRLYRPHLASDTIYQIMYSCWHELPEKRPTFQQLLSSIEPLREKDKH
Experimental: (§1) Percentage inhibition is calculated for each reaction.

[2] = target: T2, SAPK2a (Homo sapiens, UniProt Q16539)
T2 construct: purchased Upstate
Experimental: as §1

[3] = target: T3, Lck (Homo sapiens, UniProt P06239)
T3 construct: purchased Upstate
Experimental: as §1

[4] = target: T4, Flt3 (Homo sapiens, UniProt P36888)
T4 construct: purchased Upstate
T4 sequence (P36888 27-993): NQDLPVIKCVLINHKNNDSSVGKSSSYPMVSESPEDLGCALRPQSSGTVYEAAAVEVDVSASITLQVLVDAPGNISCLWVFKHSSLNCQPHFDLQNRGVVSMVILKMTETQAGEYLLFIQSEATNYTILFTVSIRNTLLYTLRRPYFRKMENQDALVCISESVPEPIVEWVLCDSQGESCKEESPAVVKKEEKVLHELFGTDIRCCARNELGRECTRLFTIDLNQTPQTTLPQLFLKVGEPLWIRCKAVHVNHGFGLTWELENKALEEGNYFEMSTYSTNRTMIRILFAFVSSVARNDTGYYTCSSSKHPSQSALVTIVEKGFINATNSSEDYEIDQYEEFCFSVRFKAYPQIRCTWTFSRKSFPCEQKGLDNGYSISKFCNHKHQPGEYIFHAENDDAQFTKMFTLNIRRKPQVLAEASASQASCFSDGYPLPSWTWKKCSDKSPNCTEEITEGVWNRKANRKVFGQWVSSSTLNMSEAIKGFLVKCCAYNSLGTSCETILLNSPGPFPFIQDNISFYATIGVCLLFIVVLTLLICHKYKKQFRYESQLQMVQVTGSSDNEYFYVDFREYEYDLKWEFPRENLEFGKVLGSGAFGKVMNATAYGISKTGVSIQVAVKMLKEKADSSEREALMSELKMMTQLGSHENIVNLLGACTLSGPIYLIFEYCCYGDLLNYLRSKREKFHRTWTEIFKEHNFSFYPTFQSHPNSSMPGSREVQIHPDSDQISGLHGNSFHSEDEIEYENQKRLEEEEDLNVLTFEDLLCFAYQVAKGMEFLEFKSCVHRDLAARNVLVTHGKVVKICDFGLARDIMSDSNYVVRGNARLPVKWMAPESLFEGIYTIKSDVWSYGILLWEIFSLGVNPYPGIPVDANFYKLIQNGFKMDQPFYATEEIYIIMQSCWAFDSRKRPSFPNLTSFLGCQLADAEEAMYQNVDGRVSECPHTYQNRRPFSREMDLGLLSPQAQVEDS
Experimental: as §1

Measured: kinase activity

T3 sequence (P06239 whole entry): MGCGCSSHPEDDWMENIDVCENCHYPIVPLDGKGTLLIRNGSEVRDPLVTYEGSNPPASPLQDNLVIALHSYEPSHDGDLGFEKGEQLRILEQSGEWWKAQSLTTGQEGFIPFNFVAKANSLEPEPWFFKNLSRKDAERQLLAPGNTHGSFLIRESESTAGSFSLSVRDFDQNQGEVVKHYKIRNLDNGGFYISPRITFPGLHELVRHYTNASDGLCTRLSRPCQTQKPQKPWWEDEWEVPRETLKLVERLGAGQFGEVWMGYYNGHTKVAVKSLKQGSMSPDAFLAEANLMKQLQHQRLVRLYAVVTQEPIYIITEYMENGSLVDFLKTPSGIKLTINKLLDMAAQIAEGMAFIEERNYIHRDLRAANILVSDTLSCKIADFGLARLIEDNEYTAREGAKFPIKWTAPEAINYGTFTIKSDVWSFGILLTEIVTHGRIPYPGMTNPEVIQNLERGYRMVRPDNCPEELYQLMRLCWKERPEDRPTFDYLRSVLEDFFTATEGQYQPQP
T2 sequence (Q16539 whole entry): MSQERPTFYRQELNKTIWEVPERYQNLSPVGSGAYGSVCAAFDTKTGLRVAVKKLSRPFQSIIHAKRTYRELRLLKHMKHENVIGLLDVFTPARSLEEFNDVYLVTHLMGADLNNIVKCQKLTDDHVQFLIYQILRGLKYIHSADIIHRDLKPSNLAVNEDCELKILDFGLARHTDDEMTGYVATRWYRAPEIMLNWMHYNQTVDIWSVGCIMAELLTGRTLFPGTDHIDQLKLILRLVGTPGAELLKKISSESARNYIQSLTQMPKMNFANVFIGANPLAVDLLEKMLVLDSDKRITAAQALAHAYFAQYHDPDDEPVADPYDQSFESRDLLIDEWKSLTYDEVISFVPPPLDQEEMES

O=C(Nc1cccc(Nc2cc(Nc3cccc(C(F)(F)F)c3)ncn2)c1)C1CC1 [Example 1, Cyclopropanecarboxylic acid {3-[6-(3-trifluoromethyl-phenylamino)-pyrimidin-4-ylamino]-phenyl}-amide]
less than 50%: all assays above
